Measurements from article PMC5187884, “In Vitro Antitumor Active Gold(I) Triphenylphosphane Complexes Containing 7-Azaindoles” (International Journal of Molecular Sciences, 2016).

What was measured:
[1] = tested on: A2780 human ovarian carcinoma cells; experiment: Cell cycle analysis by flow cytometry (PI/RNase staining); format: cell-based; settings: A2780 cells treated at IC50 concentration, 24 h; for S cell cycle phase population: control 9.0% ± 1.9%; for G2 cell cycle phase population: control 24.0% ± 2.6%; for G0/G1 cell cycle phase population: control 66.3% ± 3.8%
Procedure: The obtained results are depicted in Figure 4.
A2780 cells (1.0 × 10^6 per well) were pre-incubated in a six-well plate for 24 h, as described above. […] After 24 h, floating cells were collected and attached cells were harvested using trypsin/EDTA in PBS. Total cells were washed twice with PBS and fixed in 70% ethanol. Cells were resuspended in PBS and DNA staining was achieved by a solution of propidium iodide (PI) supplemented with RNase A (30 min, 25 °C, in the dark). After that, the cells were washed (PBS), resuspended (PBS), and DNA content was measured using flow cytometry (CytoFlex, Beckman Coulter, Brea, CA, USA) detecting emission of DNA-bound PI (maximum at 617 nm) after excitation at 535 nm. The data were analysed using CytExpert^TM software (Beckman Coulter).

[2] = tested on: A2780 human ovarian carcinoma cell line; experiment: In vitro cytotoxicity testing (MTT assay), A2780; format: cell-based; settings: 24 h exposure time; for IC50: MTT assay, read-out: IC50 ± SD, A2780
Procedure: Human A2780 ovarian carcinoma, A2780R cisplatin-resistant ovarian carcinoma and MRC-5 normal fibroblast cell lines were supplied by the European Collection of Cell Cultures (ECACC). The cell lines were cultured, according to the supplier´s instructions, in RPMI-1640 medium supplemented with 10% of fetal calf serum, 1% of 2 mM glutamine, and 1% penicillin/streptomycin. All cell lines were grown as adherent monolayers at 37 °C and 5% CO2 in a humidified atmosphere.

[3] = tested on: A2780R cisplatin-resistant ovarian carcinoma cell line; experiment: In vitro cytotoxicity testing (MTT assay), A2780R; format: cell-based, human; settings: 24 h exposure time; for IC50: MTT assay, read-out: IC50 ± SD, A2780R
Procedure: (§1) The cell lines were cultured, according to the supplier´s instructions, in RPMI-1640 medium supplemented with 10% of fetal calf serum, 1% of 2 mM glutamine, and 1% penicillin/streptomycin. All cell lines were grown as adherent monolayers at 37 °C and 5% CO2 in a humidified atmosphere.

[4] = tested on: MRC-5 normal fibroblast cell line; experiment: In vitro cytotoxicity testing (MTT assay), MRC-5; format: cell-based, human; settings: 24 h exposure time; for IC50: MTT assay, read-out: IC50 ± SD, MRC5
Procedure: as §1

[5] = molecular target: T1, bovine serum albumin (BSA) (Bos taurus, UniProt P02769); experiment: Interaction study with bovine serum albumin (NMR); settings: 50% DMF-d7/50% D2O
T1 construct: purchased Sigma-Aldrich Co. (Prague, Czech Republic) and Fisher-Scientific Co. (Pardubice, Czech Republic)
T1 sequence (P02769 25-607): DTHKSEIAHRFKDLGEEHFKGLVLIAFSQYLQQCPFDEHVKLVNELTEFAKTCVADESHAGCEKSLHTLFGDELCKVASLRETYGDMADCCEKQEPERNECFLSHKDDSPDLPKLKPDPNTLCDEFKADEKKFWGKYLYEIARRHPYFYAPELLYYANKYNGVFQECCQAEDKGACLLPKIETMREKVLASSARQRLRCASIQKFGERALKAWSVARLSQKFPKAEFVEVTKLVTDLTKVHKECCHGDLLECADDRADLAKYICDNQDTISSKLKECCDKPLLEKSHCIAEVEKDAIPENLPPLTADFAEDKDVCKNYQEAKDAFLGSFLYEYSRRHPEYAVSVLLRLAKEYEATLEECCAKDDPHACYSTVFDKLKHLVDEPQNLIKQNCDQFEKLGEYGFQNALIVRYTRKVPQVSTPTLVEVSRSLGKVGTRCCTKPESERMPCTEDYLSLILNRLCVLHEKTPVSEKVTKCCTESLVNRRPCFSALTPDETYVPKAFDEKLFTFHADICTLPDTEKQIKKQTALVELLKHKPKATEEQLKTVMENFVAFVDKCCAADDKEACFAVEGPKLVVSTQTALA
Procedure: An interaction of 8 with bovine serum albumin (BSA) resulted immediately in a white turbidity, which was subsequently removed by centrifugation (13,000 rpm for 3 min; Mini Spin, Eppendorf AG, Hamburg, Germany). The ^1H-NMR spectrum recorded on the obtained supernatant contained the signals of the released N-donor ligand, with the signal positions (e.g., C3–H signal at 6.36 ppm) being consistent with those detected for free H2Me4Claza in the same mixture of solvents (Figure S8). No signals were detected in the ^31P-NMR spectra recorded on the mentioned supernatant.
(§2) Complex 8 and [AuCl(PPh3)] […] Similar solutions were prepared with 1 or 5 mol equivs of GSH, Cys, or BSA. ^1H and ^31P-NMR spectra were recorded at different time points over 48 h at 300 K. The obtained ^1H-NMR spectra were calibrated against the residual signal of water found at 4.75 ppm, while the ^31P-NMR spectra were referenced as described above.

[6] = Solution behaviour in water/DMF mixture (1H and 31P-NMR); format: physicochemical; settings: 50% DMF-d7/50% D2O, ca. 1 mM, 48 h at ambient temperature
Procedure: Only one set of ^1H-NMR signals (e.g., C3–H signal at 6.50 ppm) and one ^31P-NMR signal (34.8 ppm) were detected on the fresh solution, and no changes were observed even after 48 h of standing at ambient temperature. The positions of the ^1H and ^31P-NMR signals detected on the solution of 8 in the 50% DMF-d7/50% D2O mixture were different from those of free H2Me4Claza (C3–H signal at 6.32 ppm; Figure 3), PPh3 (^31P-NMR signal at −4.7 ppm), the oxidized triphenylphosphane (O=PPh3; ^31P-NMR signal at 32.4 ppm) or [AuCl(PPh3)] (^31P-NMR signal at 34.2 ppm) dissolved in the same mixture of solvents (Figure S6).
as §2

[7] = Stability in DMF-d7 (1H and 31P-NMR); format: physicochemical; settings: 1H-NMR and 31P-NMR, ambient temperature
[8] = tested on: A2780 cells with acquired resistance to cisplatin; design: method as in PMID 22322463; settings: cited from earlier work
A2780 cells = tested on: A2780 cells; design: method as in PMID 22322463; settings: cited from earlier work
[9] = tested on: A549 human lung carcinoma cells; design: method as in PMID 24763048; settings: as compared with untreated cells; cited from earlier work
U266 human myeloma cells = tested on: U266 human myeloma cells; design: method as in PMID 20542334; settings: cited from earlier work

With N.N.[Cl][Pt][Cl] [Cisplatin, cisplatin, reference compound] the “cell cycle modification (phase arrest)” value [1] was “S-arrest”, the “S cell cycle phase population” value [1] was 44.8% ± 2.9% and the IC50 [2] was 20.3 ± 2.3 µM. For the same molecule, the IC50 [3] was greater than 50 µM and the IC50 [4] was greater than 50 µM.
For c1ccc([P]([Au][n]2ccc3cccnc32)(c2ccccc2)c2ccccc2)cc1 [Complex 1, [Au(aza)(PPh3)]], the “cell cycle modification (phase arrest)” value [1] was “G2-arrest”, the “S cell cycle phase population” value [1] was 7.2% ± 0.9% and the “G2 cell cycle phase population” value [1] was 44.0% ± 2.3%. For the same molecule, the “G0/G1 cell cycle phase population” value [1] was 46.0% ± 2.8%, the IC50 [2] was 3.8 ± 1.1 µM and the “solubility in the used medium” value (Solubility; cell culture medium, dilution of 50 mM DMF stock) was “less soluble”. For the same molecule, the “RF = resistance factor (IC50(A2780R)/IC50(A2780))” value (shortened to “RF = resistance factor”) [3] was 1.2, the IC50 [3] was 4.4 ± 0.8 µM and the “SI = selectivity index (IC50(MRC5)/IC50(A2780))” value (from here on “SI = selectivity index”) [4] was 2.0. It also gave an IC50 [4] of 7.7 ± 1.7 µM.
For Clc1c[n]([Au][P](c2ccccc2)(c2ccccc2)c2ccccc2)c2ncccc12 [Complex 2, [Au(3Claza)(PPh3)]], the “in vitro cytotoxicity against A2780 compared with cisplatin” value [2] was “comparable”, the IC50 [2] was 22.4 ± 5.7 µM and the “RF = resistance factor” value [3] was 1.0. For the same molecule, the IC50 [3] was 21.7 ± 0.8 µM, the “SI = selectivity index” value [4] was 1.4 and the IC50 [4] was 31.4 ± 4.9 µM.
For Brc1c[n]([Au][P](c2ccccc2)(c2ccccc2)c2ccccc2)c2ncccc12 [Complex 3, [Au(3Braza)(PPh3)]], the “in vitro cytotoxicity against A2780 compared with cisplatin” value [2] was “comparable”, the IC50 [2] was 23.3 ± 3.4 µM and the “RF = resistance factor” value [3] was 0.9. The IC50 [3] was 21.3 ± 0.8 µM, the “SI = selectivity index” value [4] was 1.2 and the IC50 [4] was 27.3 ± 1.7 µM.
For Ic1c[n]([Au][P](c2ccccc2)(c2ccccc2)c2ccccc2)c2ncccc12 [Complex 4, [Au(3Iaza)(PPh3)]], the IC50 [2] was 3.5 ± 0.4 µM, the IC50 [3] was 11 ± 4.7 µM and the “SI = selectivity index” value [4] was 8.3. For the same molecule, the IC50 [4] was 29.2 ± 5.9 µM.
In the case of Brc1cnc2c(cc[n]2[Au][P](c2ccccc2)(c2ccccc2)c2ccccc2)c1 [Complex 5, [Au(5Braza)(PPh3)]], the “cell cycle modification (phase arrest)” value [1] is reported as “G2-arrest”, the “S cell cycle phase population” value [1] is reported as 9.1% ± 2.1% and the “G2 cell cycle phase population” value [1] is reported as 30.4% ± 2.9%. The “G0/G1 cell cycle phase population” value [1] was 58.1% ± 5.8%, the IC50 [2] was 3.1 ± 0.5 µM and the IC50 [3] was 14.4 ± 3.3 µM. The “SI = selectivity index” value [4] was 8.4 and the IC50 [4] was 26 ± 4.2 µM.
For Clc1c[n]([Au][P](c2ccccc2)(c2ccccc2)c2ccccc2)c2ncc(Br)cc12 [Complex 6, [Au(3Cl5Braza)(PPh3)]], the “in vitro cytotoxicity against A2780 compared with cisplatin” value [2] was “comparable”, the IC50 [2] was 22.9 ± 2.3 µM and the “RF = resistance factor” value [3] was 0.6. For the same molecule, the IC50 [3] was 13.8 ± 2.1 µM, the “SI = selectivity index” value [4] was 1.2 and the IC50 [4] was 26.5 ± 3.7 µM.
For Brc1cnc2c(c1)c(I)c[n]2[Au][P](c1ccccc1)(c1ccccc1)c1ccccc1 [Complex 7, [Au(3I5Braza)(PPh3)]], the “in vitro cytotoxicity against A2780 compared with cisplatin” value [2] was “comparable”, the IC50 [2] was 20.2 ± 2.5 µM and the “RF = resistance factor” value [3] was 1.1. For the same molecule, the IC50 [3] was 22.1 ± 0.3 µM, the “SI = selectivity index” value [4] was 1.4 and the IC50 [4] was 27.3 ± 2.6 µM.
For Cc1cc2c(Cl)ccnc2[n]1[Au][P](c1ccccc1)(c1ccccc1)c1ccccc1 [Complex 8, [Au(2Me4Claza)(PPh3)]], the “interaction with BSA” value [5] was “replaces the N-donor ligand 2Me4Claza”, the “in vitro cytotoxicity against A2780 compared with cisplatin” value [2] was “more than seven times higher” and the IC50 [2] was 2.8 ± 0.7 µM. The solubility in water (Solubility) was “low solubility in water”, the IC50 [3] was 8.9 ± 3.8 µM and the “SI = selectivity index” value [4] was 9.6. For the same molecule, the IC50 [4] was 26.9 ± 3.6 µM and the hydrolytic stability [6] was “hydrolytically stable”.
In the case of [Cl][Au].c1ccc(P(c2ccccc2)c2ccccc2)cc1 [[AuCl(PPh3)], chlorido-triphenylphosphanegold(I) complex], the “stability in DMF-d7” value [7] is reported as “low stability”.
For CC[PH](CC)(CC)[Au][S][C@@H]1O[C@H](COC(C)=O)[C@@H](OC(C)=O)[C@H](OC(C)=O)[C@H]1OC(C)=O [auranofin, triethylphosphane-(2,3,4,6-tetra-O-acetyl-β-D-thiopyranosato)gold(I) complex], the “RF (resistance factor)” value [8] is listed as “ca. 0.9”, the “potency in vitro against A2780 cells relative to cisplatin” value (A2780 cells) is listed as “ca. three-fold higher” and the “sub-G1 cell cycle phase population increase” value [9] is listed as greater than 13%. For the same molecule, the cell cycle arrest (U266 human myeloma cells) was “G0/G1 cell cycle arrest”.
